Measured values reported in the NIST ThermoML archive (doi:10.1021/je060257y).
Numbers after ± are expanded uncertainties.

Experiment: molar heat capacity at constant pressure
Settings: 101.33 kPa, Crystal

molar heat capacity at constant pressure (298.15 K) [J/K/mol] | molar heat capacity at constant pressure (303.15 K) [J/K/mol] | molar heat capacity at constant pressure (308.15 K) [J/K/mol] | molar heat capacity at constant pressure (313.15 K) [J/K/mol] | molar heat capacity at constant pressure (318.15 K) [J/K/mol] | molar heat capacity at constant pressure (323.15 K) [J/K/mol] | molar heat capacity at constant pressure (328.15 K) [J/K/mol] | molar heat capacity at constant pressure (333.15 K) [J/K/mol] | molar heat capacity at constant pressure (338.15 K) [J/K/mol] | molar heat capacity at constant pressure (343.15 K) [J/K/mol] | Structure (SMILES)
314.5 ± 9.7 | 321.6 ± 10 | 329 ± 10 | 333.6 ± 10 | 341.1 ± 11 | 347.9 ± 11 | 353.3 ± 11 | 358.4 ± 11 | 363.2 ± 11 | 367.3 ± 11 | Cn1c2c(c(=O)n(C)c1=O)CCCCC2
212.6 ± 7.2 | 213.5 ± 7.2 | 217.1 ± 7.3 | 218.5 ± 7.4 | 219.8 ± 7.4 | 223.4 ± 7.5 | 228.3 ± 7.6 | 229 ± 7.6 | 236.5 ± 7.8 | 239.6 ± 7.9 | Cc1cc(=O)n(C)c(=O)n1C [1,3,6-trimethyl-2,4(1H,3H)-pyrimidinedione]
182.5 ± 5.7 | 185.4 ± 5.7 | 188.7 ± 5.8 | 191.2 ± 5.9 | 193.8 ± 6 | 196.4 ± 6.1 | 199.1 ± 6.2 | 201 ± 6.2 | 203.3 ± 6.3 | 206.8 ± 6.4 | Cn1ccc(=O)n(C)c1=O [1,3-dimethyl-2,4-(1H,3H)-pyrimidinedione]
282.9 ± 8.8 | 291.2 ± 9 | 296.2 ± 9.2 | 305.8 ± 9.5 | 310.9 ± 9.6 | 319.8 ± 9.9 |  |  |  |  | Cn1c2c(c(=O)n(C)c1=O)CCCC2 [1,3-dimethyl-5,6,7,8-tetrahydroquinazoline-2,4(1H,3H)-dione]
252.9 ± 7.8 | 258.1 ± 8 | 261.8 ± 8.1 |  |  |  |  |  |  |  | Cn1c2c(c(=O)n(C)c1=O)CCC2 [1,3-dimethyl-5,6-trimethyleneuracil]
187.6 ± 5.8 | 190 ± 5.9 | 190.3 ± 5.9 | 194.1 ± 6 | 194.8 ± 6 | 198.5 ± 6.2 | 199.2 ± 6.2 | 202 ± 6.3 | 203 ± 6.3 | 205.2 ± 6.4 | Cc1cn(C)c(=O)[nH]c1=O [1,5-dimethyluracil]
188.1 ± 7 | 194.3 ± 7.2 | 197.9 ± 7.2 | 202.6 ± 7.3 | 206.8 ± 7.4 | 211 ± 7.5 | 217.9 ± 7.7 | 225.1 ± 7.9 | 233.1 ± 8 | 239.8 ± 8.2 | Cc1cc(=O)[nH]c(=O)n1C [1,6-dimethyluracil]
156.9 ± 4.9 | 167.2 ± 5.2 | 179.6 ± 5.6 | 190.9 ± 5.9 | 200.5 ± 6.2 | 211.1 ± 6.5 | 223 ± 6.9 | 235 ± 7.3 | 245.9 ± 7.6 | 256.1 ± 7.9 | Cn1ccc(=O)[nH]c1=O [1-methyl-2,4(1H,3H)-pyrimidinedione]
244.5 ± 7.9 | 248.8 ± 8 | 254 ± 8.1 | 256.5 ± 8.2 | 260.9 ± 8.3 | 266.7 ± 8.4 | 271.2 ± 8.6 | 276.6 ± 8.7 | 282.3 ± 8.8 | 291.5 ± 9.1 | Cc1c(C)n(C)c(=O)n(C)c1=O [2,4(1H,3H)-pyrimidinedione, 1,3,5,6-tetramethyl-]
302.7 ± 9.4 | 302.7 ± 9.4 | 302.8 ± 9.4 | 303 ± 9.4 | 306.2 ± 9.5 | 308.4 ± 9.6 |  |  |  |  | CCCc1cn(C)c(=O)n(C)c1=O [2,4(1H,3H)-pyrimidinedione, 1,3-dimethyl-5-propyl-]
287.2 ± 10 | 288.8 ± 10 | 290.5 ± 10 | 292.2 ± 10 | 293.9 ± 10 | 303.9 ± 10 |  |  |  |  | CCCc1cc(=O)n(C)c(=O)n1C [2,4(1H,3H)-pyrimidinedione, 1,3-dimethyl-6-propyl-]
358.1 ± 14 | 544.2 ± 22 |  |  |  |  |  |  |  |  | CCCCc1cn(C)c(=O)n(C)c1=O [2,4(1H,3H)-pyrimidinedione, 5-butyl-1,3-dimethyl-]
241.1 ± 8.5 | 250.1 ± 8.7 | 256.5 ± 8.8 | 261 ± 8.9 | 264.3 ± 9 | 267.4 ± 9.1 | 270.7 ± 9.1 | 275.2 ± 9.3 | 281.7 ± 9.4 | 291.1 ± 9.6 | CCc1cn(C)c(=O)n(C)c1=O [2,4(1H,3H)-pyrimidinedione, 5-ethyl-1,3-dimethyl-]
296.4 ± 9.2 | 297.9 ± 9.2 | 299.4 ± 9.3 | 300.9 ± 9.3 | 302.1 ± 9.4 | 305.3 ± 9.5 |  |  |  |  | CCCCc1cc(=O)n(C)c(=O)n1C [2,4(1H,3H)-pyrimidinedione, 6-butyl-1,3-dimethyl-]
